What follows are compounds tested against T1, stearoyl-CoA desaturase (SCD) (Rattus norvegicus, UniProt P07308) (assay: SCD assay with rat liver microsomes ([3H]stearoyl CoA, adapted from Talamo and Bloch)). Details: Table 1; rat liver microsomes 0.2 mg/ml assay final, [3H]stearoyl CoA substrate, 30 min preincubation, 45 min reaction, room temperature.
T1 construct: The microsomes were quickly thawed and added to assay buffer so that a concentration of 0.4 mg/ml was achieved; from tissue
T1 sequence (P07308 1-358): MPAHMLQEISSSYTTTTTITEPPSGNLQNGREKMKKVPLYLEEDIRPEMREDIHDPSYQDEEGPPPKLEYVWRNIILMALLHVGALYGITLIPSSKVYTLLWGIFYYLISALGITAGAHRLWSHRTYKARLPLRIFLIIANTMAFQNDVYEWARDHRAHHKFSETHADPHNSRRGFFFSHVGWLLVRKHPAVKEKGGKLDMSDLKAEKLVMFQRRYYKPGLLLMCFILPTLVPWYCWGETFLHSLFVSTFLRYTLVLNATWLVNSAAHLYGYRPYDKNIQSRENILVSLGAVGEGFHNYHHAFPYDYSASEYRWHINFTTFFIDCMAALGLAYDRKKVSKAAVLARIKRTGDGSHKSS
Type: biochemical
Outline: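 Liver microsomes came from diet-induced male Sprague Dawley rats and were used at 0.2 mg/ml final. Assay buffer was Tris pH 7.2 with NADH, ATP, CoA, MgCl2 and 0.1% BSA. Compounds were preincubated 30 min, then reacted 45 min at room temperature with [3H]stearoyl-CoA; after TCA stop and Bio-Bead cleanup, supernatant radioactivity was counted by scintillation.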

IC50 [nM] | SMILES
8000 | O=C(COc1ccccc1)Nc1ccc2ncn(Cc3ccc4ccsc4c3)c(=O)c2c1 [XLI, N-[3-(benzo[b]thiophen-6-ylmethyl)-4-oxo(3-hydroquinazolin-6-yl)]-2-phenoxyacetamide]
2170 | O=C(CCC(=O)c1ccccc1)Nc1ccc2ncn(Cc3ccc(Cl)c(Cl)c3)c(=O)c2c1 [XLII, N-{3-[(3,4-dichlorophenyl)methyl]-4-oxo(3-hydroquinazolin-6-yl)}-4-oxo-4-phenylbutanamide]
1450 | O=C(COc1cccnc1)Nc1ccc2c(=O)n(Cc3ccc(Cl)c(Cl)c3)cnc2c1 [LI, N-{3-[(3,4-dichlorophenyl)methyl]-4-oxo(3-hydroquinazolin-7-yl)}-2-(3-pyridyloxy)acetamide]
440 | O=C(Nc1ccc2ncn(Cc3ccc(Cl)c(Cl)c3)c(=O)c2c1)OCc1ccco1 [LXIII, N-{3-[(3,4-dichlorophenyl)methyl]-4-oxo(3-hydroquinazolin-6-yl)}(2-furylmethoxy)carboxamide]
230 | O=C(CO)Nc1ccc2ncn(Cc3ccc(Cl)c(Cl)c3)c(=O)c2c1 [LXII, N-{3-[(3,4-dichlorophenyl)methyl]-4-oxo(3-hydroquinazolin-6-yl)}-2-hydroxyacetamide]
100 | CC(=O)OCC(=O)Nc1ccc2ncn(Cc3ccc(Cl)c(Cl)c3)c(=O)c2c1 [XLVII, (N-{3-[(3,4-dichlorophenyl)methyl]-4-oxo-3-hydroquinazolin-6-yl}carbamoyl)methyl acetate]
8220 | COc1ccc(Cn2cnc3ccc(NC(=O)CO)cc3c2=O)cc1 [CI, 2-hydroxy-N-{3-[(4-methoxyphenyl)methyl]-4-oxo(3-hydroquinazolin-6-yl)}acetamide]
25700 | C=CCOC(=O)Nc1ccc2ncn(Cc3ccc(Cl)cc3)c(=O)c2c1 [XIV, N-{3-[(4-chlorophenyl)methyl]-4-oxo(3-hydroquinazolin-6-yl)}prop-2-enyloxycarboxamide]
3500 | COc1ccc(Cn2cnc3ccc(NC(=O)COC(C)=O)cc3c2=O)cc1 [C, (N-{3-[(4-methoxyphenyl)methyl]-4-oxo-3-hydroquinazolin-6-yl}carbamoyl)methyl acetate]
9500 | O=C(COc1ccccc1)Nc1ccc2ncn(Cc3ccc(F)c(Cl)c3)c(=O)c2c1 [XL, N-{3-[(3-chloro-4-fluorophenyl)methyl]-4-oxo(3-hydroquinazolin-6-yl)}-2-phenoxyacetamide]
450 | O=C(Nc1ccc2ncn(Cc3ccc(F)c(Cl)c3)c(=O)c2c1)OCc1ccccc1 [XLVI, N-{3-[(3-chloro-4-fluorophenyl)methyl]-4-oxo(3-hydroquinazolin-6-yl)}(phenylmethoxy)carboxamide]
1600 | O=C(COc1ccccc1)Nc1ccc2c(=O)n(Cc3ccc(Cl)cc3)cnc2c1 [XLIV, N-{3-[(4-chlorophenyl)methyl]-4-oxo(3-hydroquinazolin-7-yl)}-2-phenoxyacetamide]
6880 | O=C(CCOc1ccccc1)Nc1ccc2ncn(Cc3ccc(Cl)c(Cl)c3)c(=O)c2c1 [XXXIII, N-{3-[(3,4-dichlorophenyl)methyl]-4-oxo(3-hydroquinazolin-6-yl)}-3-phenoxypropanamide]
12000 | O=C(Nc1ccc2ncn(Cc3ccc(Cl)cc3)c(=O)c2c1)c1ccc(Cn2ccnc2)o1 [LVII, N-{3-[(4-chlorophenyl)methyl]-4-oxo(3-hydroquinazolin-6-yl)}[5-(imidazolylmethyl)(2-furyl)]carboxamide]

Same assay, conditions: Table 2 (Example 21, procedures of Example 20); rat liver microsomes, [3H]stearoyl CoA substrate

SMILES | IC50 [nM]
CC(=O)OCC(=O)Nc1ccc2ncn(Cc3ccc(Cl)cc3)c(=O)c2c1 [compound 3, 2-(3-(4-chlorobenzyl)-4-oxo-3,4-dihydroquinazolin-6-ylamino)-2-oxoethyl acetate] | 940
CC(=O)OCC(=O)Nc1ccc2ncn(Cc3ccccc3C(F)(F)F)c(=O)c2c1 [compound 28, 2-oxo-2-(4-oxo-3-(2-(trifluoromethyl)benzyl)-3,4-dihydroquinazolin-6-ylamino)ethyl acetate] | 1500
C[C@@H](c1ccc(Cl)c(Cl)c1)n1cnc2cc(NC(=O)CO)ccc2c1=O [compound 35, (S)—N-(3-(1-(3,4-dichlorophenyl)ethyl)-4-oxo-3,4-dihydroquinazolin-7-yl)-2-hydroxyacetamide] | 1800
CC(=O)OCC(=O)Nc1ccc2ncn(Cc3ccc(Cl)c(C(F)(F)F)c3)c(=O)c2c1 [compound 6, 2-(3-(4-chloro-3-(trifluoromethyl)benzyl)-4-oxo-3,4-dihydroquinazolin-6-ylamino)-2-oxoethyl acetate] | 130
CC(=O)Nc1ccc2ncn(Cc3ccc(C(F)(F)F)cc3)c(=O)c2c1 [compound 19, N-(4-oxo-3-(4-(trifluoromethyl)benzyl)-3,4-dihydroquinazolin-6-yl)acetamide] | 28000
O=C(CO)Nc1ccc2ncn(Cc3cccc(-c4ccccc4)c3)c(=O)c2c1 [compound 29, N-(3-(biphenyl-3-ylmethyl)-4-oxo-3,4-dihydroquinazolin-6-yl)-2-hydroxyacetamide] | 3900
CC(=O)OCC(=O)Nc1ccc2ncn(CCCc3ccccc3)c(=O)c2c1 [compound 24, 2-oxo-2-(4-oxo-3-(3-phenylpropyl)-3,4-dihydroquinazolin-6-ylamino)ethyl acetate] | 1300

Now from value to compound:

IC50 [nM] | SMILES
1800 | O=C(C[C@H](O)c1ccccc1)Nc1ccc2ncn(Cc3ccc(Cl)c(Cl)c3)c(=O)c2c1 [compound 98, (S)—N-(3-(3,4-dichlorobenzyl)-4-oxo-3,4-dihydroquinazolin-6-yl)-3-hydroxy-3-phenylpropanamide]
430 | O=C(CO)Nc1ccc2ncn(CCCc3ccccc3Cl)c(=O)c2c1 [compound 56, N-(3-(3-(2-chlorophenyl)propyl)-4-oxo-3,4-dihydroquinazolin-6-yl)-2-hydroxyacetamide]
3900 | O=C(Nc1ccc2ncn(Cc3ccc(Cl)c(Cl)c3)c(=O)c2c1)[C@H](O)Cc1ccccc1 [compound 96, (R)—N-(3-(3,4-dichlorobenzyl)-4-oxo-3,4-dihydroquinazolin-6-yl)-2-hydroxy-3-phenylpropanamide]
1700 | O=C(C[C@@H](O)c1ccccc1)Nc1ccc2ncn(Cc3ccc(Cl)c(Cl)c3)c(=O)c2c1 [compound 99, (R)—N-(3-(3,4-dichlorobenzyl)-4-oxo-3,4-dihydroquinazolin-6-yl)-3-hydroxy-3-phenylpropanamide]
17000 | O=C(CO)Nc1ccc2ncn(CCOc3ccc(Cl)cc3)c(=O)c2c1 [compound 74, N-(3-(2-(4-chlorophenoxy)ethyl)-4-oxo-3,4-dihydroquinazolin-6-yl)-2-hydroxyacetamide]
78 | O=C(Nc1cnc2ncn(Cc3ccc(Cl)cc3)c(=O)c2c1)OCc1ccccc1 [compound 80, benzyl 3-(4-chlorobenzyl)-4-oxo-3,4-dihydropyrido[2,3-d]pyrimidin-6-ylcarbamate]
1500 | CNC(=O)c1ccc2c(=O)n(Cc3ccc(Cl)c(Cl)c3)cnc2c1 [compound 88, 3-(3,4-dichlorobenzyl)-N-methyl-4-oxo-3,4-dihydroquinazoline-7-carboxamide]
490 | O=C(Nc1ccc2ncn(CCCOc3ccccc3F)c(=O)c2c1)OCc1ccccc1 [compound 46, benzyl 3-(3-(2-fluorophenoxy)propyl)-4-oxo-3,4-dihydroquinazolin-6-ylcarbamate]
14000 | O=C(CO)Nc1ccc2ncn(CCCNS(=O)(=O)c3ccccc3C(F)(F)F)c(=O)c2c1 [compound 73, 2-hydroxy-N-(4-oxo-3-(3-(2-(trifluoromethyl)phenylsulfonamido)propyl)-3,4-dihydroquinazolin-6-yl)acetamide]
5200 | O=C(CO)Nc1ccc2ncn(CCNC(=O)c3ccccc3C(F)(F)F)c(=O)c2c1 [compound 69, N-(2-(6-(2-hydroxyacetamido)-4-oxoquinazolin-3(4H)-yl)ethyl)-2-(trifluoromethyl)benzamide]
580 | COCCNC(=O)c1ccc2c(=O)n(Cc3ccc(Cl)c(Cl)c3)cnc2c1 [compound 83, 3-(3,4-dichlorobenzyl)-N-(2-methoxyethyl)-4-oxo-3,4-dihydroquinazoline-7-carboxamide]
620 | O=C(Nc1ccc2ncn(Cc3cccc(COc4cc(Cl)ccc4Cl)c3)c(=O)c2c1)OCc1ccccc1 [compound 62, benzyl 3-(3-((2,5-dichlorophenoxy)methyl)benzyl)-4-oxo-3,4-dihydroquinazolin-6-ylcarbamate]
480 | N#Cc1ccccc1OCCCn1cnc2ccc(NC(=O)OCc3ccccc3)cc2c1=O [compound 49, benzyl 3-(3-(2-cyanophenoxy)propyl)-4-oxo-3,4-dihydroquinazolin-6-ylcarbamate]
1500 | COCCNC(=O)c1ccc2ncn(Cc3ccc(Cl)c(Cl)c3)c(=O)c2c1 [compound 82, 3-(3,4-dichlorobenzyl)-N-(2-methoxyethyl)-4-oxo-3,4-dihydroquinazoline-6-carboxamide]
1700 | O=C(NCc1ccc(Cl)c(Cl)c1)c1ccc2c(=O)n(Cc3ccc(Cl)c(Cl)c3)cnc2c1 [compound 91, N,3-bis(3,4-dichlorobenzyl)-4-oxo-3,4-dihydroquinazoline-7-carboxamide]
4000 | Cc1ccccc1OCC(O)Cn1cnc2ccc(NC(=O)CO)cc2c1=O (stereo not shown) [compound 76, 2-hydroxy-N-(3-(2-hydroxy-3-(o-tolyloxy)propyl)-4-oxo-3,4-dihydroquinazolin-6-yl)acetamide]
